Laboratory results published in patent publication US8067628B2 (priority 2008, dated 2011).
Where two headings read alike, the source gives them in different places.

Key:
[1] = assay type: physicochemical
Description: Distilled water used in the synthesis required preliminary preparation to remove oxygen dissolved therein. To this end, a flow of inert gas (argon or nitrogen) was passed through a flask with distilled water for 30 minutes. 0.84 grams (3 mmol) iron sulphate heptahydrate were dissolved in 12 ml prepared distilled water. To this solution, 0.40 g (3.5 mmol) cystamine hydrochloride dissolved in 8 ml water was added to this solution. Nitrogen monoxide flow prepared according to the technique [Yu. V. Karyakin and I. I. Angeov. Chistiye khimicheskiye veshchestva (Pure chemical substances), Moscow: Khimiya publishing house, 1974, 23] was passed through the prepared solution for 1 to 1.5 hours at ˜40° C. until crystals were formed in the solution. Reaction mixture was then allowed to stand at 6 to 8° C. for 15 to 20 hrs; a formed brown-red fine crystalline precipitate was filtered off and dried in air for 24 hours. Yield was […] (16.5%).
Di-μ-penicillamine-tetranitrosyl di-iron sulphate (Fe2S3N6C10H32O17) (II) was prepared by reacting iron sulphate (II) with D-penicillamine in a ratio 1:3. The reaction was carried out using a standard vacuum line and Shlenk's technology under nitrogen at room temperature. Oxygen was preliminary removed from water using the method of triplicate freezing and pumping off under vacuum. […]

[2] = tested on: line K562 human erythroblastic leukemia and A549 non-small cell lung cancer cells; assay: Cytotoxicity, MTT-test on human cancer cells in vitro; assay type: cell-based
Description: Cells of line K562 human erythroblastic leukemia and A549 non-small cell lung cancer were used as the study object. The cells were grown in the RMPI1640 medium comprising 10% fetal bovine serum at 37° C., 5% CO2 and 100% humidity.
The cytotoxic activity testing was carried out by the standard MTT-test using 96-well plates. Seeding density of cells was 5,000 cells in a well. The cells K562 and A549 were incubated with the complexes I and II at concentrations 1 μM, 10 μM or 100 μM for 72 hours.
MTT-test is based on the capability of dehydrogenases of live cells to reduce unstained MTT-reagent to the blue crystals of formazan crystals soluble in dimethylsulfoxide (DMSO). The optic absorption of stained DMSO solutions was measured on an automated counter. The cytotoxic activity was assessed in percent by the survival of the cells and calculated according to the formula: (mean value of optic absorption in test samples/mean absorption in the control)×100. IC50 was determined by a “dose-effect” curve.

[3] = NO-donor activity, sensor electrode amiNO-700 in water; settings: aerobic aqueous solutions; for spontaneous NO generation: 25° C., no chemo-, photo- or enzymatic activation; for duration of NO release: compared with binuclear nitrosyl iron complexes with aromatic thiolyls
Description: The sensor electrode “amiNO-700” of the system “inNO Nitric Oxide Measuring System” (Innovative Instruments, Inc., Tampa, Fla., USA) was used to determine NO generated by the complexes I and II in water. NO concentration was recorded for ˜1,600 seconds (with a step of 0.2 seconds) with concentration of NO donor (0.1 μmol). A standard aqueous solution of NaNO2 (100 μmol) to which a mixture of 0.12M KCl and 2 ml 1M H2SO4 in 18 ml water was added was used to calibrate the electrochemical sensor. All the experiments were carried out in aerobic solutions at temperature 25° C. pH of solutions was measured using the membrane pH-meter “HI 8314” (HANNA Instruments, Germany).

[4] = tested on: line K562 cells of human erythroblast leukemia; assay: Apoptotic activity, caspase-3/-7 FLICA (FAM-DEVD-FMK) flow cytometry; assay type: cell-based; settings: incubation 75 hours
Description: A method for determining activity of caspases is based on the use of fluorochromic inhibitors of caspases (FLICA). These inhibitors are capable of penetrating into a cell while not being cytotoxic. Within the cell FLICA-inhibitor is covalently bound to active caspase.
The freeze-dried reagent FAM-DEVD-FMK for determining caspase-3 and caspase-7 was experimentally used to test apoptotic cells. When FAM-DEVD-FMK is added to a cellular population of cells, it penetrates into each cell wherein covalent binding thereof to a large subunit of an active caspase heterodimer occurs and thus, it inhibits enzymatic activity. The reagent covalently bound to the enzyme remains inside the cell. […]
Upon termination of incubation term, the cells were centrifuged for 5 minutes at 1,200 rpm at room temperature (RT). […] Sample aliquots of induced and non-induced cells were taken, 2 μl reagent propidium iodide (PI) ready for use were added and the mixture was incubated at RT for 10 minutes to stain dead cells.
Fluorescence of all cell specimens was analyzed on a liquid citometer Backton Dikenson Fascaliber using a laser with 488 nm wavelength. […] In a left lower quadrant live cells were determined; in a right lower quadrant positive FLICA cells (FLICA+) were determined; in a left upper quadrant stained PI cells were determined, and in a right upper quadrant stained PI and FLICA+ cells were determined. […]

Di-μ-cystamine tetranitrosyl di-iron sulphate [complex I]
stability of polycrystals in air [1]: remain stable in air at room temperature for a rather long time
IC50 [2]: 50 µM
spontaneous NO generation [3]: generate NO in aerobic aqueous solutions
duration of NO release [3]: prolonged release of NQ
cells in apoptosis [4]: 77%
initiation of caspase 3 and 7 activity / induction of apoptosis ([4]; concentration 50 μl): exhibited capability of initiating caspase 3 and 7 activity

Di-μ-penicillamine-tetranitrosyl di-iron sulphate [complex II]
stability of product in the absence of inert atmosphere [1]: stable in the absence of inert atmosphere for a long time
IC50 ([2]; MTT-test, 72 hours, K562 and A549 cells (cell line of the value not stated), read-out: IC50 (cytotoxic activity, cell survival)): 100 µM
spontaneous NO generation [3]: generate NO in aerobic aqueous solutions
duration of NO release [3]: prolonged release of NQ
